Reference: ChEMBL document CHEMBL1145190, “CoMFA and CoMSIA analyses of Pneumocystis carinii dihydrofolate reductase, Toxoplasma gondii dihydrofolate reductase, and rat liver dihydrofolate reductase” (J Med Chem, 2005)
Values joined by “and” are separate entries in the source; they are usually repeats but may differ in a detail not shown here. Equal entries are not always repeated.

Legend:
Dihydrofolate reductase [1] = target: T1, Dihydrofolate reductase (Pneumocystis carinii, UniProt P16184); experiment: (§1) Inhibition of Pneumocystis carinii dihydrofolate reductase
T1 sequence (P16184 whole entry): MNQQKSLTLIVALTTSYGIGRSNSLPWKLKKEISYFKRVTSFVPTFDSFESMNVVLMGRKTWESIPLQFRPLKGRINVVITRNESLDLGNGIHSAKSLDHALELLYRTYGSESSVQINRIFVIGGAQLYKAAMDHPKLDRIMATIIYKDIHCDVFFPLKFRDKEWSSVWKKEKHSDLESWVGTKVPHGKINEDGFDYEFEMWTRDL

Dihydrofolate reductase [2] = target: T1, Dihydrofolate reductase; experiment: as §1; remark: listed apart in the source
Dihydrofolate reductase [3] = target: T2, Dihydrofolate reductase (Rattus norvegicus, UniProt Q920D2); experiment: (§2) Inhibition of rat liver dihydrofolate reductase
T2 sequence (Q920D2 whole entry): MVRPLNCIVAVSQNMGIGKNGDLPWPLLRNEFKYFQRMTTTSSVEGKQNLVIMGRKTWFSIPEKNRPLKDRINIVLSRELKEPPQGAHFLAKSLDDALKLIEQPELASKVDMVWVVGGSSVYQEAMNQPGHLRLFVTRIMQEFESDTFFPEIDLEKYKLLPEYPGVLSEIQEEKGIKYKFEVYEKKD

[4] = target: T3, Bifunctional dihydrofolate reductase-thymidylate synthase (Toxoplasma gondii, UniProt Q07422); experiment: (§3) Inhibition of Toxoplasma gondii dihydrofolate reductase
T3 sequence (Q07422 whole entry): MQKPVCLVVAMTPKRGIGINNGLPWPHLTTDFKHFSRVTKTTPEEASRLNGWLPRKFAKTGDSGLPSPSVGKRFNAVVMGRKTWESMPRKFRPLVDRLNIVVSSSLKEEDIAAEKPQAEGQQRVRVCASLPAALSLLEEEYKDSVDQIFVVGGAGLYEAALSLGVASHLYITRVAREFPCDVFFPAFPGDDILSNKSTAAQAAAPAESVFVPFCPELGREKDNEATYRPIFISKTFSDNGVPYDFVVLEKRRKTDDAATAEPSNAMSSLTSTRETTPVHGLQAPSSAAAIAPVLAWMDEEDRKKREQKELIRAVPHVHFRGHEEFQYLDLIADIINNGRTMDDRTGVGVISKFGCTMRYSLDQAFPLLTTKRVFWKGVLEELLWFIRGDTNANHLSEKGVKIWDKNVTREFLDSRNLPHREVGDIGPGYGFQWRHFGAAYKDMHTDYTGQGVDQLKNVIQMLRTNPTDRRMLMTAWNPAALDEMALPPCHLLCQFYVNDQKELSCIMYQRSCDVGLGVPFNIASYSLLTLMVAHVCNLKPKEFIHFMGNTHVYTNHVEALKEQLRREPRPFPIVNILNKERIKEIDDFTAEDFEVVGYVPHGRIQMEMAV

Dihydrofolate reductase [5] = target: T2, Dihydrofolate reductase; experiment: as §2; remark: listed apart in the source
[6] = target: T3, Bifunctional dihydrofolate reductase-thymidylate synthase; experiment: as §3; remark: listed apart in the source

Row | SMILES | IC50 (Dihydrofolate reductase [1]) [nM] | IC50 (Dihydrofolate reductase [2]) [nM] | IC50 (Dihydrofolate reductase [3]) [nM] | IC50 [4] | IC50 (Dihydrofolate reductase [5]) [nM] | IC50 [6]
1 | Nc1nc(N)c2nc(CNc3cccc4ccccc34)ccc2n1 | 230 | 230 | – | – | – | –
2 | CN(Cc1ccc2nc(N)nc(N)c2n1)c1ccccc1Cl | 210 | 210 | – | – | – | –
3 | COc1cc(N(C)CC2CCc3nc(N)nc(N)c3C2)cc(OC)c1OC (stereo unspecified) | – | – | 38 | – | – | –
4 | COc1ccc(N(C)Cc2ccc3nc(N)nc(N)c3n2)cc1 | 250 | 250 | – | – | – | –
5 | Nc1nc(N)c2cc(NCc3cccc4ccccc34)ccc2n1 | 720 | 720 | 190 | 99 nM | 190 | 99 nM
6 | CN(Cc1ccc2nc(N)nc(N)c2n1)c1cccc2ccccc12 | 40 | 40 | – | – | – | –
7 | COc1cc(CN(C)c2ccc3nc(N)nc(N)c3c2)cc(OC)c1 | – | 23.3 | – | – | – | –
8 | Cc1c(CN(C)c2ccccc2)cnc2nc(N)nc(N)c12 | 30 | 30 | 18 | 6.3 nM | 18 | 6.3 nM
9 | CN(Cc1ccc2nc(N)nc(N)c2n1)c1ccc2ccccc2c1 | 52 | 52 | – | – | – | –
10 | COc1cc(CCC2CNc3nc(N)nc(N)c3C2)cc(OC)c1OC (stereo unspecified) | 7700 | 7710 | 2100 | 1100 nM | 2100 | 1100 nM
11 | COc1ccc(NCc2ccc3nc(N)nc(N)c3n2)cc1OC | 900 | 900 | – | – | – | –
12 | COc1ccccc1NCc1cnc2nc(N)nc(N)c2c1C | 68.9 | 68.9 | 80.1 | 7.4 nM | 80.1 | 7.4 nM
13 | Cc1c(CN(C)c2ccc(Cl)cc2)cnc2nc(N)nc(N)c12 | 80 | 80 | 170 | 1.7 nM | 170 | 1.7 nM
14 | Nc1nc(N)c2nc(CSc3ccccc3)ccc2n1 | 2000 | 2000 | – | – | – | –
15 | COc1ccc(OC)c(NCc2ccc3nc(N)nc(N)c3n2)c1 | 4400 | 4400 | – | – | – | –
16 | Cc1c(C)c(-n2cccc2)c(C)c(C)c1NNCc1cnc2nc(N)nc(N)c2c1C | 620 | 620 | 170 | 75 nM | 170 | 75 nM
17 | CCN(Cc1cnc2nc(N)nc(N)c2c1C)c1cc(OC)c(OC)c(OC)c1 | 497 | 497 | – | – | – | –
18 | COc1ccc(-c2ccccc2)cc1NNCc1cnc2nc(N)nc(N)c2c1C | 64 | 64 | 440 | 68 nM | 440 | 68.1 nM
19 | Nc1nc(N)c2nc(CNc3ccc4ccccc4c3)ccc2n1 | 1600 | 1600 | – | – | – | –
20 | Nc1nc(N)c2nc(CNc3c(Cl)cccc3Cl)ccc2n1 | 1000 | 1000 | – | – | – | –

Row | SMILES | IC50 (Dihydrofolate reductase [1]) [nM] | IC50 (Dihydrofolate reductase [2]) [nM] | IC50 (Dihydrofolate reductase [3]) [nM] | IC50 [4] | IC50 (Dihydrofolate reductase [5]) [nM] | IC50 [6]
21 | COc1ccccc1N(C)Cc1ccc2nc(N)nc(N)c2n1 | 510 | 510 | – | – | – | –
22 | COc1ccc(NCc2ccc3nc(N)nc(N)c3n2)cc1 | 850 | 849 | – | – | – | –
23 | Nc1nc(N)c2nc(CNc3cc(Cl)c(Cl)c(Cl)c3)ccc2n1 | 660 | 661 | – | – | – | –
24 | COc1cc(CN(C)c2cnc3nc(N)nc(N)c3c2)cc(OC)c1 | – | – | – | 31 nM | – | 31 nM
25 | Nc1nc(N)c2nc(CNc3ccc(Cl)cc3Cl)ccc2n1 | 730 | 730 | – | – | – | –
26 | COc1cc(NCc2cnc3nc(N)nc(N)c3c2C)c(O)cc1-n1cccc1 | 350 | 350 | 230 | 33 nM | 230 | 33 nM
27 | COc1cccc(NCc2ccc3nc(N)nc(N)c3n2)c1 | 1700 | 1700 | – | – | – | –
28 | CN(Cc1ccc2nc(N)nc(N)c2n1)c1cc(Cl)c(Cl)c(Cl)c1 | 250 | 250 | – | – | – | –
29 | CN(CC1CCc2nc(N)nc(N)c2C1)c1cccc2ccccc12 (stereo unspecified) | – | – | – | – | 160 | –
30 | Nc1nc(N)c2nc(CSc3ccc4ccccc4c3)ccc2n1 | 380 | 380 | – | – | – | –
31 | COc1ccc(N(C)Cc2ccc3nc(N)nc(N)c3n2)cc1OC | 91 | 91 | – | – | 270 | –
32 | Nc1nc(N)c2c(n1)CCC(CNc1cccc(Cl)c1)C2 (stereo unspecified) | 940 | 940 | 128 | 78 nM | 128 | 78 nM
33 | CN(Cc1ccc2nc(N)nc(N)c2n1)c1ccc(Cl)cc1Cl | 500 | 500 | – | – | – | –
34 | COc1cc(N(C)Cc2cnc3nc(N)nc(N)c3c2C)cc(OC)c1OC | – | – | – | – | 7.21 | –
35 | Nc1nc(N)c2nc(CNc3cccc(Cl)c3)ccc2n1 | 2000 | 2000 | – | – | – | –
36 | Nc1nc(N)c2nc(CSc3cccc4ccccc34)ccc2n1 | 470 | 470 | – | – | 252 | –
37 | CN(Cc1ccc2nc(N)nc(N)c2n1)c1cc(Cl)ccc1Cl | 150 | 150 | – | – | – | –
38 | COc1cc(OC)c(CNc2cnc3nc(N)nc(N)c3c2)c(OC)c1 | – | – | 1200 | – | – | –
39 | COc1cc(-n2ccc3c4c(N)nc(N)nc4nc(=O)c-3c2)cc(OC)c1OC | 4280 | 4280 | 1120 | 240 nM and 52 nM | 1120 | 240 nM and 52 nM
40 | COc1ccc(OC)c(N(C)Cc2ccc3nc(N)nc(N)c3n2)c1 | 210 | 210 | – | 250 nM | – | –

Row | SMILES | IC50 (Dihydrofolate reductase [1]) [nM] | IC50 (Dihydrofolate reductase [2]) [nM] | IC50 (Dihydrofolate reductase [3]) [nM] | IC50 [4] | IC50 (Dihydrofolate reductase [5]) [nM] | IC50 [6]
41 | Nc1nc(N)c2nc(CNc3ccccc3)ccc2n1 | 1700 | 1700 | – | – | – | –
42 | COc1ccc(NCc2ccc3nc(N)nc(N)c3n2)c(OC)c1 | 5500 | 5500 | – | – | – | –
43 | COc1ccc(N(C)Cc2ccc3nc(N)nc(N)c3n2)c(OC)c1 | 160 | 160 | – | – | – | –
44 | COc1cc(C(C)Nc2cnc3nc(N)nc(N)c3c2)cc(OC)c1OC (stereo unspecified) | – | – | – | – | – | 182 nM
45 | COc1cccc(N(C)Cc2ccc3nc(N)nc(N)c3n2)c1 | 97 | 97 | – | – | – | –
46 | COc1cc(NNCc2cnc3nc(N)nc(N)c3c2C)c(-n2cccc2)cc1OC | – | – | 3500 | 600 nM | 3500 | 600 nM
47 | COc1ccc(CNc2cnc3nc(N)nc(N)c3c2)c(OC)c1OC | 14100 | 14100 | 3300 | 350 nM | 3300 | 350 nM
48 | Nc1nc(N)c2nc(CNc3ccc(Cl)c(Cl)c3)ccc2n1 | 410 | 410 | – | – | – | –
49 | COc1cc(N(C)Cc2ccc3nc(N)nc(N)c3n2)cc(OC)c1OC | 120 | 120 | 52 | 44 nM | 52 | 44 nM
50 | COc1ccccc1NCc1ccc2nc(N)nc(N)c2n1 | 2700 | 2700 | – | – | – | –
51 | COc1cc(NCc2ccc3nc(N)nc(N)c3n2)cc(OC)c1OC | 2000 | 2000 | – | – | – | –
52 | COc1cc(OC)c(CN(C)c2ccc3nc(N)nc(N)c3c2)c(OC)c1 | 116000 | 116000 | 22700 | 950 nM | 22700 | 950 nM
53 | CN(Cc1ccc2nc(N)nc(N)c2n1)c1c(Cl)cccc1Cl | 170 | 170 | – | – | – | –
54 | CN(Cc1cccc2ccccc12)c1ccc2nc(N)nc(N)c2c1 | 17 | 17 | 17 | – | 17 | 21 nM
55 | Nc1nc(N)c2nc(CNc3ccccc3Cl)ccc2n1 | 530 | 530 | – | – | – | –
56 | CN(Cc1ccc2nc(N)nc(N)c2n1)c1ccccc1 | 290 | 290 | – | 0.84 nM | – | –
57 | CN(Cc1ccc2nc(N)nc(N)c2n1)c1ccc(Cl)c(Cl)c1 | 38 | 38 | – | – | – | –
58 | Nc1nc(N)c2nc(CNc3cc(Cl)ccc3Cl)ccc2n1 | 1600 | 1600 | – | – | – | –
